According to patent publication US8946223B2, “Substituted hydroxamic acids and uses thereof” (Millennium Pharmaceuticals, Inc., priority 2010, dated 2015):

Biological target: T1, purified human HDAC6 (Homo sapiens, UniProt Q9UBN7)
T1 construct: purchased BPS Bioscience 5006
T1 sequence (Q9UBN7 1-1215): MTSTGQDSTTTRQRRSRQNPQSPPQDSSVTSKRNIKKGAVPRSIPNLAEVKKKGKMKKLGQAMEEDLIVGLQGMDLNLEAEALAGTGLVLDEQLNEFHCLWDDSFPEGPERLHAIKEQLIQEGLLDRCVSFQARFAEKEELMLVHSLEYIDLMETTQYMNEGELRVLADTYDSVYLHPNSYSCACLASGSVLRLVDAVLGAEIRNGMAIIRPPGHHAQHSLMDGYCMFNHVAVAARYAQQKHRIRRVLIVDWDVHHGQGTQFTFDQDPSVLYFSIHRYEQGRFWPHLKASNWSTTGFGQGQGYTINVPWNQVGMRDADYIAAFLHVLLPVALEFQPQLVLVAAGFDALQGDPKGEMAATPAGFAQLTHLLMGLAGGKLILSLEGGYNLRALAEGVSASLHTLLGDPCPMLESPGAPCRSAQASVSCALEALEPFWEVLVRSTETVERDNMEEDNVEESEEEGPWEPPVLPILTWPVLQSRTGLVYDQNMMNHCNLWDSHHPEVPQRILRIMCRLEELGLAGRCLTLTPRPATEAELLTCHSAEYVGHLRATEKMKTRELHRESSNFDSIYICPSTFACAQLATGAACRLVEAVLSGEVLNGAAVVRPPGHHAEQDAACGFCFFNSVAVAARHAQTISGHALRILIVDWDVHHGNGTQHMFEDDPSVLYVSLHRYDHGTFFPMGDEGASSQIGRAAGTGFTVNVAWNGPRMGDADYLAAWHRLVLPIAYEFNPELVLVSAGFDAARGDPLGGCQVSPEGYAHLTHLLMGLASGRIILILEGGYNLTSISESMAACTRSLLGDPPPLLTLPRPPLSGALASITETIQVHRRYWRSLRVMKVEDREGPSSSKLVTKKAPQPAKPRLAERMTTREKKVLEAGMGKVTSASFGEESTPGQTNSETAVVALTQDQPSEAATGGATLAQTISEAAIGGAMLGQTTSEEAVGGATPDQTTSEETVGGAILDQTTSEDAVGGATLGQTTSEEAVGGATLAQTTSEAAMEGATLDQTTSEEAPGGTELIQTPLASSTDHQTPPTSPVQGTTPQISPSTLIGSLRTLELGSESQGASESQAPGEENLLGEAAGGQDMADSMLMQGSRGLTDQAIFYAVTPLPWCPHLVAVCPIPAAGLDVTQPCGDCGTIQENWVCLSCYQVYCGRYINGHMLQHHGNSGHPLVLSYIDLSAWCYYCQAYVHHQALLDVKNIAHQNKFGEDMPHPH
Assay: HDAC6 enzyme assay
Type: biochemical
Method: To measure the inhibition of HDAC6 activity, purified human HDAC6 (BPS Bioscience; Cat. No. 5006) is incubated with substrate Ac-Arg-Gly-Lys(Ac)-AMC peptide (Bachem Biosciences; Cat. No. I-1925) for 1 hour at 30° C. in the presence of test compounds or vehicle DMSO control. The reaction is stopped with the HDAC inhibitor trichostatin A (Sigma; Cat. No. T8552) and the amount of Arg-Gly-Lys-AMC generated is quantitated by digestion with trypsin (Sigma; Cat. No. T1426) and subsequent measurement of the amount of AMC released using a fluorescent plate reader (Pherastar; BMG Technologies) set at Ex 340 nm and Em 460 nm. Concentration response curves are generated by calculating the fluorescence increase in test compound-treated samples relative to DMSO-treated controls, and enzyme inhibition (IC50) values are determined from those curves.

[1] = bins: greater than 1 μM and less than 10 μM, greater than 10 μM

Structure (SMILES) | IC50 [1] | IC50 (bin: less than 100 nM)
O=C(NO)c1cn2c(n1)CN(C(=O)C13CC4CC(CC(C4)C1)C3)CC2 [Compound I-27, 7-[1-adamantylcarbonyl]-N-hydroxy-5,6,7,8-tetrahydroimidazo[1,2-a]pyrazine-2-carboxamide] | 1000 to 10000 nM | –
CC(C)(C)C(=O)N1CCn2cc(C(=O)NO)nc2C1 [Compound I-41, 7-(2,2-dimethylpropanoyl)-N-hydroxy-5,6,7,8-tetrahydroimidazo[1,2-a]pyrazine-2-carboxamide] | 1000 to 10000 nM | –
O=C(NO)c1cc2n(c1)CCCN(C(=O)C13CC4CC(CC(C4)C1)C3)C2 [Compound I-38, 2-[1-adamantylcarbonyl]-N-hydroxy-2,3,4,5-tetrahydro-1H-pyrrolo[1,2-a][1,4]diazepine-8-carboxamide] | 1000 to 10000 nM | –
Cc1ccc2[nH]c(C(=O)N3CCn4cc(C(=O)NO)cc4C3)cc2c1 [Compound I-22, N-hydroxy-2-[(5-methyl-1H-indol-2-yl)carbonyl]-1,2,3,4-tetrahydropyrrolo[1,2-a]pyrazine-7-carboxamide] | – | < 100 nM
O=C(NO)c1cc2n(c1)CCN(Cc1ccccc1)C2=O [Compound I-42, 2-benzyl-N-hydroxy-1-oxo-1,2,3,4-tetrahydropyrrolo[1,2-a]pyrazine-7-carboxamide] | – | < 100 nM
O=C(NO)c1cn2c(n1)CN(C(=O)c1ccc(-c3ccccc3)cc1)CC2 [Compound I-2, 7-(biphenyl-4-ylcarbonyl)-N-hydroxy-5,6,7,8-tetrahydroimidazo[1,2-a]pyrazine-2-carboxamide] | – | < 100 nM
Cc1c(C(=O)N2CCCn3cc(C(=O)NO)cc3C2)cnn1-c1ccccc1 [Compound I-7, N-hydroxy-2-[(5-methyl-1-phenyl-1H-pyrazol-4-yl)carbonyl]-2,3,4,5-tetrahydro-1H-pyrrolo[1,2-a][1,4]diazepine-8-carboxamide] | 1000 to 10000 nM | –
O=C(NO)c1cc2n(n1)CCN(C(=O)C1(C(F)(F)F)CC1)C2 [Compound I-8, N-hydroxy-5-{[1-(trifluoromethyl)cyclopropyl]carbonyl}-4,5,6,7-tetrahydropyrazolo[1,5-a]pyrazine-2-carboxamide] | 1000 to 10000 nM | –
O=C(NO)c1cc2n(n1)CCN(C(=O)c1ccc(OCc3ccccc3)cc1)C2 [Compound I-17, 5-[4-(benzyloxy)benzoyl]-N-hydroxy-4,5,6,7-tetrahydropyrazolo[1,5-a]pyrazine-2-carboxamide] | – | < 100 nM
Cn1c(C(=O)N2CCCn3cc(C(=O)NO)cc3C2)cc2oc(-c3ccc(C(F)(F)F)cc3)cc21 [Compound I-5, N-hydroxy-2-({4-methyl-2-[4-(trifluoromethyl)phenyl]-4H-furo[3,2-b]pyrrol-5-yl}carbonyl)-2,3,4,5-tetrahydro-1H-pyrrolo[1,2-a][1,4]diazepine-8-carboxamide] | 1000 to 10000 nM | –
CC1(C(=O)N2CCn3nc(C(=O)NO)cc3C2)CCCCC1 [Compound I-6, N-hydroxy-5-[(1-methylcyclohexyl)carbonyl]-4,5,6,7-tetrahydropyrazolo[1,5-a]pyrazine-2-carboxamide] | 1000 to 10000 nM | –
O=C(NO)c1cc2n(c1)CCN(C(=O)c1cn3ccccc3n1)C2 [Compound I-3, N-hydroxy-2-(imidazo[1,2-a]pyridin-2-ylcarbonyl)-1,2,3,4-tetrahydropyrrolo[1,2-a]pyrazine-7-carboxamide] | 1000 to 10000 nM | –
O=C(NO)c1cc2n(n1)CCN(C(=O)C13CC4CC(CC(C4)C1)C3)C2 [Compound I-16, 5-(1-adamantylcarbonyl)-N-hydroxy-4,5,6,7-tetrahydropyrazolo[1,5-a]pyrazine-2-carboxamide] | 1000 to 10000 nM | –

Further lines, results first:

IC50 [1] | IC50 (bin: less than 100 nM) | Structure (SMILES)
1000 to 10000 nM | – | CCc1cccc(CC)c1NC(=O)N1CCn2cc(C(=O)NO)nc2C1 [Compound I-115, N7-(2,6-diethylphenyl)-N2-hydroxy-5,6-dihydroimidazo[1,2-a]pyrazine-2,7(8H)-dicarboxamide]
> 10000 nM | – | Cc1nc(C(=O)N2CCn3cc(C(=O)NO)cc3C2)cs1 [Compound I-73, N-hydroxy-2-[(2-methyl-1,3-thiazol-4-yl)carbonyl]-1,2,3,4-tetrahydropyrrolo[1,2-a]pyrazine-7-carboxamide]
– | < 100 nM | O=C(NO)c1cn2c(n1)CN(C(=O)c1cc3ccccc3s1)CC2 [Compound I-44, 7-(1-benzothien-2-ylcarbonyl)-N-hydroxy-5,6,7,8-tetrahydroimidazo[1,2-a]pyrazine-2-carboxamide]
– | < 100 nM | Cn1c(C(=O)N2CCn3cc(C(=O)NO)cc3C2)cc(Cl)c1Cl [Compound I-91, 2-[(4,5-dichloro-1-methyl-1H-pyrrol-2-yl)carbonyl]-N-hydroxy-1,2,3,4-tetrahydropyrrolo[1,2-a]pyrazine-7-carboxamide]
1000 to 10000 nM | – | O=C(NO)c1cc2n(c1)CCCN(C(=O)c1c(Cl)cccc1Cl)C2 [Compound I-79, 2-(2,6-dichlorobenzoyl)-N-hydroxy-2,3,4,5-tetrahydro-1H-pyrrolo[1,2-a][1,4]diazepine-8-carboxamide]
1000 to 10000 nM | – | O=C(NO)c1cc2n(c1)CCCN(C(=O)c1ccc(Cl)cc1)C2 [Compound I-56, 2-(4-chlorobenzoyl)-N-hydroxy-2,3,4,5-tetrahydro-1H-pyrrolo[1,2-a][1,4]diazepine-8-carboxamide]
> 10000 nM | – | O=C(NO)c1cc2n(c1)CCN(C(=O)c1cnn3cccnc13)C2 [Compound I-84, N-hydroxy-2-(pyrazolo[1,5-a]pyrimidin-3-ylcarbonyl)-1,2,3,4-tetrahydropyrrolo[1,2-a]pyrazine-7-carboxamide]
1000 to 10000 nM | – | CCc1cc(C(=O)N2CCCn3cc(C(=O)NO)cc3C2)n(C)n1 [Compound I-95, 2-[(3-ethyl-1-methyl-1H-pyrazol-5-yl)carbonyl]-N-hydroxy-2,3,4,5-tetrahydro-1H-pyrrolo[1,2-a][1,4]diazepine-8-carboxamide]
– | < 100 nM | Cc1cc(C(=O)N2CCn3cc(C(=O)NO)cc3C2)c(C)o1 [Compound I-85, 2-(2,5-dimethyl-3-furoyl)-N-hydroxy-1,2,3,4-tetrahydropyrrolo[1,2-a]pyrazine-7-carboxamide]
– | < 100 nM | O=C(NO)c1cc2n(c1)CCN(C(=O)c1ccc(-c3ccccc3)cc1)C2 [Compound I-51, 2-(biphenyl-4-ylcarbonyl)-N-hydroxy-1,2,3,4-tetrahydropyrrolo[1,2-a]pyrazine-7-carboxamide]
1000 to 10000 nM | – | CC(C)CCN1CCn2nc(C(=O)NO)cc2C1=O [Compound I-77, N-hydroxy-5-(3-methylbutyl)-4-oxo-4,5,6,7-tetrahydropyrazolo[1,5-a]pyrazine-2-carboxamide]
> 10000 nM | – | Cc1oc(-c2ccccc2)nc1CC(=O)N1CCn2cc(C(=O)NO)cc2C1 [Compound I-82, N-hydroxy-2-[(5-methyl-2-phenyl-1,3-oxazol-4-yl)acetyl]-1,2,3,4-tetrahydropyrrolo[1,2-a]pyrazine-7-carboxamide]
– | < 100 nM | Cc1onc(-c2ccccc2)c1CN1CCn2cc(C(=O)NO)cc2C1=O [Compound I-197, N-hydroxy-2-[(5-methyl-3-phenylisoxazol-4-yl)methyl]-1-oxo-1,2,3,4-tetrahydropyrrolo[1,2-a]pyrazine-7-carboxamide]
> 10000 nM | – | Cc1ccc(C(=O)N2CCCn3cc(C(=O)NO)cc3C2)s1 [Compound I-69, N-hydroxy-2-[(5-methyl-2-thienyl)carbonyl]-2,3,4,5-tetrahydro-1H-pyrrolo [1,2-a][1,4]diazepine-8-carboxamide]
1000 to 10000 nM | – | Cc1ccc(-c2ccc(C(=O)N3CCCn4cc(C(=O)NO)cc4C3)cc2)cc1 [Compound I-80, N-hydroxy-2-[(4′-methylbiphenyl-4-yl)carbonyl]-2,3,4,5-tetrahydro-1H-pyrrolo[1,2-a][1,4]diazepine-8-carboxamide]
